In patent publication US5262411A, “Isocephem derivatives, and antimicrobial composition containing the derivatives” (Otsuka Pharmaceutical Co., Ltd., priority 1989, dated 1993) one finds MIC data, which are given here for 6 compounds.

Type in all cases: cell-based
The subject of one test is A. calcoaceticus Ac-54. Description: MIC against A. calcoaceticus Ac-54 by the plate diluted method. The conditions noted are these: Acinetobacter calcoaceticus, AC54; A. calcoaceticus Ac-54; 1×10^6 cells/ml; read-out: MIC. How it is done: (§1) In order to investigate the in vitro activity of the test compounds against various bacteria, the minimal inhibitory concentration (MIC) values were determined by the plate diluted method (See CHEMOTHERAPY, 22, 1126-1128, 1974.)
(§2) Each strain was adjusted to 1×10^6 cells/ml (O.D. 600 mμ, 0.07 to 0.16).

The test system of another test is M. moganii IIDkono. Description: MIC against M. moganii IIDkono by the plate diluted method. As for the experimental part: as §1, §2
The subject of the next test is S. marcescens IFO 12648. Briefly: MIC against S. marcescens IFO 12648 by the plate diluted method. The conditions noted are these: Serratia marcescens, IFO12648; S. marcescens IFO 12648; 1×10^6 cells/ml; read-out: MIC. How it is done: as §1, §2
For another test, the system named is E. coli NIHJ JC-2. Briefly: MIC against E. coli NIHJ JC-2 by the plate diluted method. The note with it: Escherichia coli, NIHJJC2. As for the experimental part:
as §1, §2

The test system of another test is P. aeruginosa ATCC-10145. Description: MIC against P. aeruginosa ATCC-10145 by the plate diluted method. The conditions noted are these: Pseudomonas aeruginosa, ATCC10145; P. aeruginosa ATCC-10145; 1×10^6 cells/ml; read-out: MIC. How it is done: as §1, §2
For a further test, the system named is S. aureaus FDA-209P. Briefly: MIC against S. aureaus FDA-209P by the plate diluted method. The note with it: Staphylococcus aureus, FDA209P; S. aureaus FDA-209P; 1×10^6 cells/ml; read-out: MIC. As for the experimental part:
as §1, §2

For a further test, the system named is P. aeruginosa E-2. Description: MIC against P. aeruginosa E-2 by the plate diluted method. The note with it: Pseudomonas aeruginosa, E2; P. aeruginosa E-2; 1×10^6 cells/ml; read-out: MIC. How it is done:
as §1, §2

The test system of another test is K. pneumoniae NCTC-9632. Briefly: MIC against K. pneumoniae NCTC-9632 by the plate diluted method. The conditions noted are these: Klebsiella pneumoniae, NCTC9632; K. pneumoniae NCTC-9632; 1×10^6 cells/ml; read-out: MIC. As for the experimental part: as §1, §2
Where [1] appears, read: M. moganii IIDkono, 1×10^6 cells/ml, read-out: MIC.
[2] abbreviates: E. coli NIHJ JC-2, 1×10^6 cells/ml, read-out: MIC.

The structures appear in SMILES notation. Converted amounts (≈) assume the structure as drawn. Like-named read-outs stand apart in the source and are kept apart here.

`Nc1nc(/C(=N/OCc2cc(=O)c(O)cn2O)C(=O)N[C@@H]2C(=O)N3C(C(=O)O)=C(CSc4nnnn4CC(=O)O)SC[C@H]23)ns1` [No. 20, (6S,7S)-7-[(Z)-2-(5-amino-1,2,4-thiadiazol-3-yl)-2-(1,5-dihydroxy-4-pyridone-2-ylmethoxyimino)acetamide]-3-(1-carboxymethyl-1H-tetrazol-5-ylthiomethyl)-isocephem-4-carboxylic acid]: the MIC – broadly, the lowest concentration found to suppress growth – with A. calcoaceticus Ac-54 is 0.05 µg/mL (≈ 0.0734 µM); in the test on M. moganii IIDkono (setting [1]), 0.024 µg/mL (≈ 0.0352 µM); in the test on S. marcescens IFO 12648 it was 0.012 µg/mL (≈ 0.0176 µM); in the test on E. coli NIHJ JC-2 (setting [2]), 0.05 µg/mL (≈ 0.0734 µM); in the test with P. aeruginosa ATCC-10145, 0.05 µg/mL (≈ 0.0734 µM); in the test with S. aureaus FDA-209P it was 100 µg/mL (≈ 147 µM). Also, the MIC worked out at 0.05 µg/mL (≈ 0.0734 µM) with P. aeruginosa E-2 and 0.012 µg/mL (≈ 0.0176 µM) in the test with K. pneumoniae NCTC-9632.

Regarding `Nc1nc(/C(=N/OCc2cc(=O)c(O)cn2O)C(=O)N[C@@H]2C(=O)N3C(C(=O)O)=C(CSc4nnnn4CC(=O)O)CS[C@H]23)ns1` [No. 21, (6R,7R)-7-[(Z)-2-(5-amino-1,2,4-thiadiazol-3-yl)-2-(1,5-dihydroxy-4-pyridone-2-ylmethoxyimino)acetamide]-3-(1-carboxymethyl-1H-tetrazole-5-ylthiomethyl)-3-cephem-4-carboxylic acid], the MIC in the test on A. calcoaceticus Ac-54 was 0.05 µg/mL (≈ 0.0734 µM); with M. moganii IIDkono (setting [1]), 0.024 µg/mL (≈ 0.0352 µM); in the test with S. marcescens IFO 12648 it was 0.012 µg/mL (≈ 0.0176 µM); with E. coli NIHJ JC-2 (setting [2]), 0.1 µg/mL (≈ 0.147 µM); in the test with P. aeruginosa ATCC-10145, 0.1 µg/mL (≈ 0.147 µM); with S. aureaus FDA-209P, 100 µg/mL (≈ 147 µM). The MIC in the test with P. aeruginosa E-2 stood at 0.1 µg/mL (≈ 0.147 µM); with K. pneumoniae NCTC-9632, 0.012 µg/mL (≈ 0.0176 µM).

In the case of `Nc1nc(/C(=N/OCc2cc(=O)c(O)cn2O)C(=O)N[C@@H]2C(=O)N3C(C(=O)O)=C(CSc4snc(O)c4C(=O)O)SC[C@H]23)ns1` [No. 22, (6S,7S)-7-[(Z)-2-(5-amino-1,2,4-thiadiazol-3-yl)-2-(1,5-dihydroxy-4-pyridone-2-ylmethoxyimino)acetamide]-3-(4-carboxy-3-hydroxyisothiazol-5-ylthiomethyl) isocephem-4-carboxylic acid], the MIC with A. calcoaceticus Ac-54 is 0.1 µg/mL (≈ 0.143 µM); in the test on M. moganii IIDkono it was 0.05 µg/mL (≈ 0.0716 µM); in the test with S. marcescens IFO 12648, 0.012 µg/mL (≈ 0.0172 µM); with E. coli NIHJ JC-2 (setting [2]) it was 0.05 µg/mL (≈ 0.0716 µM); in the test with P. aeruginosa ATCC-10145, 0.1 µg/mL (≈ 0.143 µM); in the test with S. aureaus FDA-209P, 100 µg/mL (≈ 143 µM). The MIC was determined as 0.2 µg/mL (≈ 0.286 µM) in the test with P. aeruginosa E-2 and 0.012 µg/mL (≈ 0.0172 µM) in the test on K. pneumoniae NCTC-9632.

Take `Nc1nc(/C(=N/OCc2cc(=O)c(O)cn2O)C(=O)N[C@@H]2C(=O)N3C(C(=O)O)=C(CSc4snc(O)c4C(=O)O)CS[C@H]23)ns1` [No. 23, (6R,7R)-7-[(Z)-2-(5-amino-1,2,4-thiadiazol-3-yl)-2-(1,5-dihydroxy-4-pyridone-2-ylmethoxyimino)acetamide]-3-(4-carboxy-3-hydroxyiso-thiazol-5-ylthiomethyl)-3-cephem-4-carboxylic acid]: the MIC is 0.1 µg/mL (≈ 0.143 µM) in the test on A. calcoaceticus Ac-54; 0.05 µg/mL (≈ 0.0716 µM) with M. moganii IIDkono; 0.024 µg/mL (≈ 0.0343 µM) with S. marcescens IFO 12648; 0.1 µg/mL (≈ 0.143 µM) with E. coli NIHJ JC-2 (setting [2]); 0.1 µg/mL (≈ 0.143 µM) in the test on P. aeruginosa ATCC-10145; 100 µg/mL (≈ 143 µM) in the test with S. aureaus FDA-209P. Also, the MIC with P. aeruginosa E-2 was found to be 0.1 µg/mL (≈ 0.143 µM); in the test with K. pneumoniae NCTC-9632, 0.024 µg/mL (≈ 0.0343 µM).

For the compound `Nc1nc(/C(=N/OCc2cc(=O)c(O)cn2O)C(=O)N[C@@H]2C(=O)N3C(C(=O)[O-])=C(CSc4cc[n+](CC(=O)O)cc4)SC[C@H]23)ns1` [No. 24, (6S,7S)-7-[(Z)-2-(5-amino-1,2,4-thiadiazol-3-yl)-2-(1,5-dihydroxy-4-pyridone-2-ylmethoxyimino)acetamide]-3-(1-carboxymethylpyridinium-4-ylthiomethyl)isocephem-4-carboxylate], the MIC in the test with A. calcoaceticus Ac-54 was 0.39 µg/mL (≈ 0.565 µM); with M. moganii IIDkono (setting [1]), 0.024 µg/mL (≈ 0.0347 µM); in the test with S. marcescens IFO 12648 it was 0.024 µg/mL (≈ 0.0347 µM); in the test with E. coli NIHJ JC-2 (setting [2]), 0.1 µg/mL (≈ 0.145 µM); with P. aeruginosa ATCC-10145 it was 0.1 µg/mL (≈ 0.145 µM); with S. aureaus FDA-209P, 12.5 µg/mL (≈ 18.1 µM). Moreover, the MIC came to 0.2 µg/mL (≈ 0.29 µM) in the test with P. aeruginosa E-2 and 0.024 µg/mL (≈ 0.0347 µM) with K. pneumoniae NCTC-9632.

For `Nc1nc(/C(=N/OCc2cc(=O)c(O)cn2O)C(=O)N[C@@H]2C(=O)N3C(C(=O)[O-])=C(CSc4cc[n+](CC(=O)O)cc4)CS[C@H]23)ns1` [No. 25, (6R,7R)-7-[(Z)-2-(5-amino-1,2,4-thiadiazol-3-yl)-2-(1,5-dihydroxy-4-pyridone-2-ylmethoxyimino)acetamide]-3-(1-carboxymethylpyridinium-4-ylthiomethyl)-3-cephem-4-carboxylate], the MIC in the test on A. calcoaceticus Ac-54 was 0.39 µg/mL (≈ 0.565 µM); against M. moganii IIDkono it was 0.05 µg/mL (≈ 0.0724 µM); in the test on S. marcescens IFO 12648 it was 0.024 µg/mL (≈ 0.0347 µM); against E. coli NIHJ JC-2, 0.2 µg/mL (≈ 0.29 µM); in the test on P. aeruginosa ATCC-10145, 0.1 µg/mL (≈ 0.145 µM); in the test with S. aureaus FDA-209P, 6.25 µg/mL (≈ 9.05 µM). Moreover, the MIC turned out to be 0.2 µg/mL (≈ 0.29 µM) in the test with P. aeruginosa E-2 and 0.024 µg/mL (≈ 0.0347 µM) with K. pneumoniae NCTC-9632.
